Calls of active or inactive are those of the source.
How the values were obtained:
Format in all cases: functional
[1] = molecular target: T1, Microphthalmia-associated transcription factor (Homo sapiens, UniProt O75030); test: reducers of TRPM1 reporter luminescence, concentration series – cell-based, SK-MEL-5, cherry-picked, set 3, MITF inhibitor project, dose response (AID 493073);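 further: SK-MEL-5 melanoma cells with luciferase driven by the MITF target TRPM1 promoter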
T1 sequence (O75030 whole entry): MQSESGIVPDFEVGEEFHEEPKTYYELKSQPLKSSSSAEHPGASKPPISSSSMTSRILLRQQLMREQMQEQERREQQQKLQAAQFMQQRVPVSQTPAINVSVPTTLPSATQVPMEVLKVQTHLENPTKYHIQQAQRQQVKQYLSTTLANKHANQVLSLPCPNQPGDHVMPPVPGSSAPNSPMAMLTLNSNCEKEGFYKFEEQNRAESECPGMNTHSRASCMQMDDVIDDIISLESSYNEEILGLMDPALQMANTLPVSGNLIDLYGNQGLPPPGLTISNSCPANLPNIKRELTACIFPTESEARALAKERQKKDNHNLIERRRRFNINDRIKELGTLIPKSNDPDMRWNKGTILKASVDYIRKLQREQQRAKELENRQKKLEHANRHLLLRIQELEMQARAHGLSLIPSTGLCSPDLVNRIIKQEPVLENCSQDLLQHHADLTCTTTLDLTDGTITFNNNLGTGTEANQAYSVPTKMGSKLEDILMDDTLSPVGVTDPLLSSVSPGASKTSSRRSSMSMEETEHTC

[2] = viability of PTEN-deleted HCT116 cells – cell-based, HCT116 PTEN knockout, dose response (AID 1047);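 further: HCT116 colon tumor cells with PTEN knocked out; cells exposed to compound for 60 hours before readout; potency for loss of cell viability measured by luminescence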
[3] = viability of HCT116 lacking mutant beta-catenin – cell-based, human colon tumor, dose response (AID 1045);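 further: HCT116 colon tumor cells with beta catenin knocked out; cells exposed to compound for 60 hours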
Vero = test: viability of Vero cells under compound – cytotoxicity control for flavivirus capping enzyme inhibitors (AID 588742); conditions: Chlorocebus sabaeus
[4] = molecular target: Tyrosine-protein kinase JAK2 (Homo sapiens, UniProt O60674);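 further: JAK2 tested as one member of a kinase panel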
[5] = molecular target: Tyrosine-protein kinase Lck (Homo sapiens, UniProt P06239);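 further: lck was assayed as one member of a kinase panel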
[6] = molecular target: Tyrosine-protein kinase receptor TYRO3 (Homo sapiens, UniProt Q06418);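 further: TYRO3 value obtained as one member of a kinome-wide profiling panel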
[7] = molecular target: T2, Tyrosine-protein kinase JAK3 (Homo sapiens, UniProt P52333)
T2 sequence (P52333 whole entry): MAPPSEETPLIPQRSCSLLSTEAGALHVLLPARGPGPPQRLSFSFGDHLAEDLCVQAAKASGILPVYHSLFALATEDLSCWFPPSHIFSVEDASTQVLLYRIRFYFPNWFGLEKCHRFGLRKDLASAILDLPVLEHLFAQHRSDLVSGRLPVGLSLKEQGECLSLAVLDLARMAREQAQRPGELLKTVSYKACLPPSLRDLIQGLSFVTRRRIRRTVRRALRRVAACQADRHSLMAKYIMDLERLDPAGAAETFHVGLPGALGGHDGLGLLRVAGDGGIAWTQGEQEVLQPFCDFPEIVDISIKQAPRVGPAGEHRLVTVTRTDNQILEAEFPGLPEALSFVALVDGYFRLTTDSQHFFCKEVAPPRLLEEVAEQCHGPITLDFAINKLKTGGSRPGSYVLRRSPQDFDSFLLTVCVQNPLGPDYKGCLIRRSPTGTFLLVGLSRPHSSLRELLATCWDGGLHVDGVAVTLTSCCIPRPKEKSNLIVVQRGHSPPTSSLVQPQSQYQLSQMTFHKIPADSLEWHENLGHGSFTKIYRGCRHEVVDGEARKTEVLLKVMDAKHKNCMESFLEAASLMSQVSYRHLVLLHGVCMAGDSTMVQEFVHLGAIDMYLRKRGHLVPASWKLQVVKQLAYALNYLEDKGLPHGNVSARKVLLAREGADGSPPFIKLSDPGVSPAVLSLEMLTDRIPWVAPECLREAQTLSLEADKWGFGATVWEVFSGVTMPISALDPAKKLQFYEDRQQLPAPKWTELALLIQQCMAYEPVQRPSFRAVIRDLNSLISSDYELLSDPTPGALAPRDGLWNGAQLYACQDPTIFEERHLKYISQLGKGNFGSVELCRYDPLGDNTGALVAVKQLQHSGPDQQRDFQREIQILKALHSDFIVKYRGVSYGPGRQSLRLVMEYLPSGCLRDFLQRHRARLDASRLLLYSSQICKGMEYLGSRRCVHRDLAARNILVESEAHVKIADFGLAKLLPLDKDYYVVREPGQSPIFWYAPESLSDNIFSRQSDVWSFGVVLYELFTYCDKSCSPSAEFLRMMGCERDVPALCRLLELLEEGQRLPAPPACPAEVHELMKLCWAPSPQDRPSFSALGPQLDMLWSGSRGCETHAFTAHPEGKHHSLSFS

[8] = molecular target: Mitogen-activated protein kinase kinase kinase kinase 5 (Homo sapiens, UniProt Q9Y4K4);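 further: measured as one member of a kinome-spanning kinase panel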
Aurora kinase A = Aurora kinase A (Homo sapiens, UniProt O14965);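 further: value from the Navigating the Kinome kinase panel profiling, panel entry STK6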
[9] = molecular target: Vascular endothelial growth factor receptor 2 (Homo sapiens, UniProt P35968)
[10] = molecular target: Cyclin-dependent kinase 8 (Homo sapiens, UniProt P49336); test: Navigating the Kinome. Panel member name: CDK8
[11] = molecular target: Vascular endothelial growth factor receptor 1 (Homo sapiens, UniProt P17948);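 further: measured within a kinome-wide profiling panel, FLT1 as the panel member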
[12] = molecular target: Serine/threonine-protein kinase TBK1 (Homo sapiens, UniProt Q9UHD2); test: Navigating the Kinome. Panel member name: TBK1
[13] = molecular target: Tyrosine-protein kinase BTK (Homo sapiens, UniProt Q06187)
[14] = molecular target: Mitogen-activated protein kinase 8 (Homo sapiens, UniProt P45983);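 further: value comes from one member of a kinome-wide kinase profiling panel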
[15] = molecular target: Dual specificity mitogen-activated protein kinase kinase 1 (Homo sapiens, UniProt Q02750); test: Navigating the Kinome. Panel member name: MAP2K1
[16] = molecular target: Proto-oncogene tyrosine-protein kinase receptor Ret (Homo sapiens, UniProt P07949);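 further: measured within a kinome-wide profiling panel, RET as the panel member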
[17] = molecular target: Protein kinase C theta type (Homo sapiens, UniProt Q04759); test: Navigating the Kinome. Panel member name: PRKCQ
[18] = molecular target: Platelet-derived growth factor receptor alpha (Homo sapiens, UniProt P16234); test: Navigating the Kinome. Panel member name: PDGFRA
[19] = molecular target: Glycogen synthase kinase-3 beta (Homo sapiens, UniProt P49841);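 further: value comes from a broad kinome profiling panel, with GSK3B as the panel member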
[20] = molecular target: BDNF/NT-3 growth factors receptor (Homo sapiens, UniProt Q16620);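 further: NTRK2 measured as one member of a broad kinome-wide kinase profiling panel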
[21] = molecular target: Cyclin-dependent kinase 5 (Homo sapiens, UniProt Q00535);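 further: CDK5 measured as one member of a kinase profiling panel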

Tyrosine-protein kinase Lck, sequence (P06239 whole entry): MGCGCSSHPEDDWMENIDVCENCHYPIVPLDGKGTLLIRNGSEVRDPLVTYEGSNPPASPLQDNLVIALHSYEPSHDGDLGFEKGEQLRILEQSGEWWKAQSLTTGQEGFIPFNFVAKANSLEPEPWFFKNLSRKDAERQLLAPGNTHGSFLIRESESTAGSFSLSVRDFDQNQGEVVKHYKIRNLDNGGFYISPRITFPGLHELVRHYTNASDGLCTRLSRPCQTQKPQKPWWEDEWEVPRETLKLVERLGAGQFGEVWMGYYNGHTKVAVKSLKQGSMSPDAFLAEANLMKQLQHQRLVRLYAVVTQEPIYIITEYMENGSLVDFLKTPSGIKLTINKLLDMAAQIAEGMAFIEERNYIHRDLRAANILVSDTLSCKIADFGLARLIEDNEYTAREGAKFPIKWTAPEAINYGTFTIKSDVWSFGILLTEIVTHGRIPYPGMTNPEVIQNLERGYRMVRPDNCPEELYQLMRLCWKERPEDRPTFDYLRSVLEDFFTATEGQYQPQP
Vascular endothelial growth factor receptor 2, sequence (P35968 whole entry): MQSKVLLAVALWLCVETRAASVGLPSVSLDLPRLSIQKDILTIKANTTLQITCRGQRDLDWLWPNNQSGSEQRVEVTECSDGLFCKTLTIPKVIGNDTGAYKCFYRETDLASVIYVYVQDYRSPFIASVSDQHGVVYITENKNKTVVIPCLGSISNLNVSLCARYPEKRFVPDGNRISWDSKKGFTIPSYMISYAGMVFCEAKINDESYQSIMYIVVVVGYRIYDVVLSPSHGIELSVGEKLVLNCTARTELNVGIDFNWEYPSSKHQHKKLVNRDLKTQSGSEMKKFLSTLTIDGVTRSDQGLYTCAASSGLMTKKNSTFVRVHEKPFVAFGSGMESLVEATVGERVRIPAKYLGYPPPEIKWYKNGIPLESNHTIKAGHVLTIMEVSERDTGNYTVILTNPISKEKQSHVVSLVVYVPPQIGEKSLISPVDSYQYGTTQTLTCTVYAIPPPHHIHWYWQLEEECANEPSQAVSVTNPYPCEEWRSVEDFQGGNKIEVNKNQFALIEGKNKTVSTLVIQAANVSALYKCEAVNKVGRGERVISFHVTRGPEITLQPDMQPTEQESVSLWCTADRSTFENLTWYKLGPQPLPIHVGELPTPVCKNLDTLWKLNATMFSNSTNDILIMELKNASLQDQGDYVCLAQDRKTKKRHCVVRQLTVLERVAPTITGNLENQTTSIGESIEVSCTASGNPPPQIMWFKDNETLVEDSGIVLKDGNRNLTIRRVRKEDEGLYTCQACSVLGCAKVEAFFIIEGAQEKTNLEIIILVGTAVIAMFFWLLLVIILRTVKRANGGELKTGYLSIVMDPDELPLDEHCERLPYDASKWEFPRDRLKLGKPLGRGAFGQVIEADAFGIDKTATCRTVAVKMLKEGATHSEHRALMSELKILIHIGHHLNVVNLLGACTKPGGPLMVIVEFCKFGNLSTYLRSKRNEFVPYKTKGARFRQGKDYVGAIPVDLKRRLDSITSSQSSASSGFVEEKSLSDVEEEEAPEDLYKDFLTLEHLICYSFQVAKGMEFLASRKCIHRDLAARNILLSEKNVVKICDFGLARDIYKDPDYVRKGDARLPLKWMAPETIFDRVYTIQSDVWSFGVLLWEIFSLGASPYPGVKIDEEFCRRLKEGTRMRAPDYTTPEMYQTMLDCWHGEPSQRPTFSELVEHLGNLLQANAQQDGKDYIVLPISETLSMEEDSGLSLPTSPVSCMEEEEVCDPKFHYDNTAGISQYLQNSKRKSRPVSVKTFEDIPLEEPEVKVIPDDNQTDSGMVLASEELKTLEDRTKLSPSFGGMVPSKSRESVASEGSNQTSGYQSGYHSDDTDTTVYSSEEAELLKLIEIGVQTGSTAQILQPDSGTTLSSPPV
Glycogen synthase kinase-3 beta, sequence (P49841 whole entry): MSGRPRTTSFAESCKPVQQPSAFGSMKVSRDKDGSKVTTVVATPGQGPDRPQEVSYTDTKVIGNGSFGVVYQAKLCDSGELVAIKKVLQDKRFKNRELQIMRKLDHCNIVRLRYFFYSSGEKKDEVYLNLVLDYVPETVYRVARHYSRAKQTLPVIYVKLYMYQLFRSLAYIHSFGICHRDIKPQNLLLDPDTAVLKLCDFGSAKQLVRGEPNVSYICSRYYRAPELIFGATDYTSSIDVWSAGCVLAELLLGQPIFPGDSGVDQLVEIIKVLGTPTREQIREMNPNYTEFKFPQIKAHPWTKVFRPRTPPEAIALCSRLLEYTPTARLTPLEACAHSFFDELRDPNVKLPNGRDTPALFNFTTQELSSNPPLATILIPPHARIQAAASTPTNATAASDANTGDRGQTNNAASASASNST
Protein kinase C theta type, sequence (Q04759 whole entry): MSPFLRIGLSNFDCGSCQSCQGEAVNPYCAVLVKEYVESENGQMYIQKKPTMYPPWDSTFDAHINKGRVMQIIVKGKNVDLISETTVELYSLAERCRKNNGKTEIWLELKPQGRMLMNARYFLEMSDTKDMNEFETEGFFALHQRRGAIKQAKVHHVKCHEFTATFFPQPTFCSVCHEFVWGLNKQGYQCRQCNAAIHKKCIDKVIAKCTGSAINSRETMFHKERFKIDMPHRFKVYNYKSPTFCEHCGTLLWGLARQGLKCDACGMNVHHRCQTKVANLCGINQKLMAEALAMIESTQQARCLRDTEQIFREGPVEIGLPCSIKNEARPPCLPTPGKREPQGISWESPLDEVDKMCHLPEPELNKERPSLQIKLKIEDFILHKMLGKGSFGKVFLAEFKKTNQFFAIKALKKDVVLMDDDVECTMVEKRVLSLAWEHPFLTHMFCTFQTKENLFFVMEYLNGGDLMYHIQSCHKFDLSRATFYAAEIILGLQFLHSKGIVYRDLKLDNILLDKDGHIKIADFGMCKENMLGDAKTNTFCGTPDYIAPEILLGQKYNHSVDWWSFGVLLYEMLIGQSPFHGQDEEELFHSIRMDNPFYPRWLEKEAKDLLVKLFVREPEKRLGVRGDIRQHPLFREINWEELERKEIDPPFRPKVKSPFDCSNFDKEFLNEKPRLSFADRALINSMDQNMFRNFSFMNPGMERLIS
Mitogen-activated protein kinase 8, sequence (P45983 whole entry): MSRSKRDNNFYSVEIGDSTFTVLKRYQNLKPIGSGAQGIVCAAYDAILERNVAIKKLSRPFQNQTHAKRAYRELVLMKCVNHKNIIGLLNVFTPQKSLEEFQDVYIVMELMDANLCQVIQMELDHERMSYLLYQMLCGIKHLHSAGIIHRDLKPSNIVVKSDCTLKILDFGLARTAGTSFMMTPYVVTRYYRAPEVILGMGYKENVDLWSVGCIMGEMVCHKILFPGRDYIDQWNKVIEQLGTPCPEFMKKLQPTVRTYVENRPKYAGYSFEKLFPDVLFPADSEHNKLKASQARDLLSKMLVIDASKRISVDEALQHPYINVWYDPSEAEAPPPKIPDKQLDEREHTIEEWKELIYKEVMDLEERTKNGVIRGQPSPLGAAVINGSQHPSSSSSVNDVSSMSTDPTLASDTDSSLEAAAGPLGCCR
Proto-oncogene tyrosine-protein kinase receptor Ret, sequence (P07949 whole entry): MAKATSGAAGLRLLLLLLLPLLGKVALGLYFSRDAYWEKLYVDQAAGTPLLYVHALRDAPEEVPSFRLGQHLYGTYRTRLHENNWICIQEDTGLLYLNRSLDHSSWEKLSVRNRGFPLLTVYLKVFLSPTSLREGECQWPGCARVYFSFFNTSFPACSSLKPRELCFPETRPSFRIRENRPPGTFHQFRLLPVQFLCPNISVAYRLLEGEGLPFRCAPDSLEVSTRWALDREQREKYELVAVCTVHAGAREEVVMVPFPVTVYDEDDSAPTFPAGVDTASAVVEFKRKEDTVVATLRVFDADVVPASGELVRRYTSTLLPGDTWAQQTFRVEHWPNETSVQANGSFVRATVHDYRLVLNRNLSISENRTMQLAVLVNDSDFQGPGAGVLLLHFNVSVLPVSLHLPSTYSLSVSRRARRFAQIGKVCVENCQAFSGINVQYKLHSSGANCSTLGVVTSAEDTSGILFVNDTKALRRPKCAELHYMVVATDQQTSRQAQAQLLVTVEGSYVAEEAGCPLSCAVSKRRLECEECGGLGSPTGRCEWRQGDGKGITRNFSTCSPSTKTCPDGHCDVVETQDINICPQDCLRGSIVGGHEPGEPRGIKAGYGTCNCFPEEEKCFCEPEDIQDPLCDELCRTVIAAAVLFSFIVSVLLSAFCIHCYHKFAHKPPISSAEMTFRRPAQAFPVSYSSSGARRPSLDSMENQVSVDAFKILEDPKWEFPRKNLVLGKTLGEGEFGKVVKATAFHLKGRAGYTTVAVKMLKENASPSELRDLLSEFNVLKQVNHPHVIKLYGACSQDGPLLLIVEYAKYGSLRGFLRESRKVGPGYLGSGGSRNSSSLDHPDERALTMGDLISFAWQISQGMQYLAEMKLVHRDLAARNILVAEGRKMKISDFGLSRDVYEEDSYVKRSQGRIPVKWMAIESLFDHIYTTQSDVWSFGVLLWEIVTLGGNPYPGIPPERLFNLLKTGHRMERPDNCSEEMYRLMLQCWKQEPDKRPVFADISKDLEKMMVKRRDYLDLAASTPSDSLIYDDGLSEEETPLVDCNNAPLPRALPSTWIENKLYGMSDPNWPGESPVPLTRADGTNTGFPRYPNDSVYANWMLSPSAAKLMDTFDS
Dual specificity mitogen-activated protein kinase kinase 1, sequence (Q02750 whole entry): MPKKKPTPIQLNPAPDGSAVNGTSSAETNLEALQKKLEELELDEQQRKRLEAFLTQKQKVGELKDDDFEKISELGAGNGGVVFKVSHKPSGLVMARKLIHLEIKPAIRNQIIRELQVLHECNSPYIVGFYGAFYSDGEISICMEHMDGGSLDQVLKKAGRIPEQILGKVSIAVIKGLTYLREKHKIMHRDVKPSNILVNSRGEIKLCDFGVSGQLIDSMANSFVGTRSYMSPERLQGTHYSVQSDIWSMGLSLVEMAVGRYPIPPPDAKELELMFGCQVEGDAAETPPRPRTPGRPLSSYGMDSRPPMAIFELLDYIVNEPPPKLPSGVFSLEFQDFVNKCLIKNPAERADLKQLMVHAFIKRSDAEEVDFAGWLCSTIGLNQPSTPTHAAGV

SMILES | AC50 [1] | EC50 [2] | EC50 [3] | Ki [4] | Ki [5] | Ki [6] | Ki [7] | Ki (Aurora kinase A) | Ki [9] | Ki [10] | Ki [11] | Ki [12] | Ki [13] | Ki [14] | Ki [15] | Ki [16] | Ki [17] | Ki [18] | Ki [19] | Ki [20] | other results
CC(C)CC(=O)NC(c1cccs1)c1ccc2cccnc2c1O (stereo unspecified) | 3710 nM (active) |  |  |  |  |  |  |  |  |  |  |  |  |  |  |  |  |  |  |  | 
CCOC(=O)c1ccc(NC2=CC(=O)C(=O)c3ccccc32)cc1 | 4300 nM (active) | 15500 nM (active) | 13800 nM (active) |  |  |  |  |  |  |  |  |  |  |  |  |  |  |  |  |  | CC50 (Vero): 22300 nM (active)
OC(CNCCC1C=Nc2ccccc21)Cn1c2ccc(Cl)cc2c2cc(Cl)ccc21 (stereo unspecified) |  | 2730 nM (active) | 2700 nM (active) |  |  |  |  |  |  |  |  |  |  |  |  |  |  |  |  |  | 
NC1CCC(Nc2nc(Cl)cc(-c3c[nH]c4ncccc34)n2)CC1 (stereo unspecified) |  |  |  | 794 nM (active) | 3160 nM (active) | 2510 nM (active) | 158 nM (active) | > 1580 nM (inactive) | 794 nM (active) | 5.01 nM (active) | > 3980 nM (inactive) | 2000 nM (active) | > 6310 nM (inactive) | 1260 nM (active) | 20 nM (active) | 2000 nM (active) | 0.794 nM (active) | 1260 nM (active) | 398 nM (active) | 794 nM (active) | pKi [4]: 6.1; pKi [5]: 5.5; pKi [7]: 6.8; Ki [8]: 50.1 nM (active); pKi [8]: 7.3; pKi [9]: 6.1; pKi [10]: 8.3; pKi [14]: 5.9; pKi [15]: 7.7; pKi [16]: 5.7; pKi [17]: 9.1; pKi [18]: 5.9; pKi [19]: 6.4; pKi [20]: 6.1
O=C(O)C1CN(Cc2ccc(OCc3ccccc3)cc2Cl)C1 |  |  |  | > 2510 nM (inactive) | > 6310 nM (inactive) | > 3160 nM (inactive) | > 5010 nM (inactive) | > 1580 nM (inactive) | > 2510 nM (inactive) | > 3980 nM (inactive) | > 3980 nM (inactive) | > 3160 nM (inactive) | > 6310 nM (inactive) | > 5010 nM (inactive) | > 3160 nM (inactive) | > 3160 nM (inactive) | > 2510 nM (inactive) | > 2510 nM (inactive) | > 3980 nM (inactive) | > 3980 nM (inactive) | Ki [21]: > 3160 nM (inactive)
